Format in all cases: physicochemical
Data set [1] in a line: Light stability, 4 weeks at 25° C. with exposure to daylight, HPLC. From the text: A measurement was made of the contents of the salts with resort to HPLC under the same conditions as in the chemical stability test.
The nature of data set [2]: Chemical stability in solid state, accelerated test at 60° C.
The nature of data set [3]: Chemical stability in aqueous state, 25° C., 4 weeks in the dark, HPLC. As to conditions: distilled water. As for the experimental part: The resulting aqueous solutions were stored at 25° C. for 4 weeks in the dark, after which a measurement was made of the contents of the salts with resort to HPLC under the same conditions as in the solid state.
A short description of data set [4]: Solubility in various solvents at 37° C. As to conditions: aqueous buffer, ionic strength 0.2, 37° C., based on the weight of amlodipine.

Turning to `CCOC(=O)C1=C(COCCN)NC(C)=C(C(=O)OC)C1c1ccccc1Cl` (stereo not drawn) [Besylate, Amlodipine Besylate], in data set [1] (4 weeks, 25° C., daylight), the “Color change on light exposure” value is “turned yellow from white”. The “Content (HPLC), Stored 4 weeks, 25° C. daylight” value in data set [1] (4 weeks, 25° C., daylight) was 82.5%. In addition, the “Content (HPLC), Initial” value in data set [1] was found to be 99.2%. The “Content, storage period 1 week” value in data set [2] (1 week) was 99.6%. Further, the “Content, storage period 2 weeks” value in data set [2] (2 weeks) came to 99.4%. Besides, the “Content, storage period 4 weeks” value in data set [2] (4 weeks) is reported as 99.2%. In addition, in data set [2] (initial), the “Content, storage period initial” value was found to be 99.6%. The “Degraded impurity / content change in aqueous solution” value in data set [3] is listed as “neither degraded impurity nor content change was found”. Moreover, the solubility in data set [4] (pH 3 buffer) came to 3250 µg/mL; in data set [4] (pH 4 buffer), 3150 µg/mL; in data set [4] (pH 6 buffer) it was 3190 µg/mL; in data set [4] (pH 7 buffer) it was 1590 µg/mL; in data set [4] (pH 8 buffer), 1390 µg/mL.

As to `CCOC(=O)C1=C(COCCN)NC(C)=C(C(=O)OC)C1c1ccccc1Cl.Cc1ccc(S(=O)(=O)O)cc1` (stereo not drawn) [Tosylate, Amlodipine Para-toluenesulfonate], the “Content (HPLC), Stored 4 weeks, 25° C. daylight” value in data set [1] (4 weeks, 25° C., daylight) stood at 72.0%. Further, in data set [1], the “Content (HPLC), Initial” value is 99.2%.

A word on the solubility: it is the concentration that dissolves in the medium under given conditions. Read a low solubility as little dissolved substance.

The values above are taken from patent US6756390B2, “Organic acid salt of amlodipine” (CJ Corp., priority 2002, dated 2004).
